# Structures can show the parent of a compound that is named as a salt.
# Test system: PRKACA-PRKAR2A interaction (SmBiT-PRKACA / LgBiT-PRKAR2A), protein kinase A
# Set-up: NanoLuc complementation counter-screen in cell extract, PRKACA with PRKAR2A, loss of luminescence, detects NanoLuc interference
# Conditions: 0.5 h, 20 µM; inhibitor
row,Compound,Inh (PKA)
1,"COc1cc2cc(c1Cl)N(C)C(=O)C[C@H](OC(=O)C(C)C)[C@]1(C)O[C@@H]1[C@H](C)[C@@H]1C[C@@](O)(NC(=O)O1)[C@H](OC)/C=C/C=C(\C)C2 [UM0141517:01, Ansamitocin P-3]",6.121%
2,"CC[C@@H]1/C=C(\C)C[C@H](C)C[C@H](OC)[C@H]2O[C@@](O)(C(=O)C(=O)N3CCCC[C@H]3C(=O)O[C@H](/C(C)=C/[C@@H]3CC[C@@H](O)[C@H](OC)C3)[C@H](C)[C@@H](O)CC1=O)[C@H](C)C[C@@H]2OC [UM0141519:01, Ascomycin(FK 520)]",13.3

# Same assay, conditions: counter-screen for NanoLuc interference, 0.5 h, 20 µM, inhibitor, Inh (PKA)
row,Inh (PKA),Compound
1,-3.616%,"C[C@@H](N)[C@H]1CC[C@H](C(=O)Nc2ccncc2)CC1 [UM0141498:01, Y-27632 dihydrochloride]"
2,-5.28%,"C[C@@H](N)[C@H]1CC[C@H](C(=O)Nc2ccncc2)CC1 [UM0141498:02, Y-27632]"
3,28.73%,"N#CC[C@H](C1CCCC1)n1cc(-c2ncnc3[nH]ccc23)cn1 [UM0141500:01, Ruxolitinib (INCB018424)]"
4,6.216%,"CN(C)C/C=C/C(=O)Nc1cc2c(Nc3ccc(F)c(Cl)c3)ncnc2cc1O[C@H]1CCOC1 [UM0141512:01, Afatinib dimaleate]"
5,5.289%,"CN(C)C/C=C/C(=O)Nc1cc2c(Nc3ccc(F)c(Cl)c3)ncnc2cc1O[C@H]1CCOC1 [UM0141512:02, Afatinib (BIBW2992)]"
6,3.371%,"Cn1c(=O)cc(N2CCC[C@@H](N)C2)n(Cc2ccccc2C#N)c1=O [UM0141514:01, Alogliptin Benzoate]"
7,39.79%,"CC(C)(C)c1nc(-c2cccc(NS(=O)(=O)c3c(F)cccc3F)c2F)c(-c2ccnc(N)n2)s1 [UM0141540:01, Dabrafenib Mesylate (GSK-2118436)]"

# The remaining lines, values behind:
row,Compound,Inh (PKA)
1,"COc1cc2nccc(Oc3ccc(NC(=O)C4(C(=O)Nc5ccc(F)cc5)CC4)cc3)c2cc1OC [UM0141491:01, Cabozantinib (XL184, BMS-907351)]",10.46%
2,"CCCCCCOC(=O)NC(=N)c1ccc(NCc2nc3cc(C(=O)N(CCC(=O)OCC)c4ccccn4)ccc3n2C)cc1 [UM0141539:01, Dabigatran etexilate mesylate]",7.702%

# Same assay, conditions: counter-screen for NanoLuc interference; 0.5 h, 20 µM; inhibitor
row,Inh (PKA),Compound
1,37.25%,"Nc1nc(N)c2nc(-c3cccc(O)c3)c(-c3cccc(O)c3)nc2n1 [UM0141482:01, TG100-115]"
2,45.28%,"O=C(Nc1cccc(Nc2ncc(Br)c(NCCc3cnc[nH]3)n2)c1)N1CCCC1 [UM0141484:01, BX-912]"
3,24.24%,"Cc1c(NC(=O)OC[C@@H]2COCCN2)cn2ncnc(Nc3ccc4c(cnn4Cc4cccc(F)c4)c3)c12 [UM0141485:01, AC480 (BMS-599626)]"
4,45.3%,"Cc1ccc(F)c(NC(=O)Nc2ccc(-c3cccc4[nH]nc(N)c34)cc2)c1 [UM0141489:01, Linifanib (ABT-869)]"
5,2.676%,"CCN(CC)C(=O)c1ccc(C2=CC3(CCNCC3)Oc3cccc(O)c32)cc1 [UM0141492:01, ADL5859 HCl]"
6,23.88%,"C=CC(=O)N1CCC[C@@H](n2nc(-c3ccc(Oc4ccccc4)cc3)c3c(N)ncnc32)C1 [UM0141493:01, PCI-32765 (Ibrutinib)]"
7,7.222%,"CC[C@H](Nc1ncnc2[nH]cnc12)c1nc2cccc(F)c2c(=O)n1-c1ccccc1 [UM0141495:01, CAL-101 (Idelalisib, GS-1101)]"
8,42.22%,"CC(C)NC[C@@H](C(=O)N1CCN(c2ncnc3c2[C@H](C)C[C@H]3O)CC1)c1ccc(Cl)cc1 [UM0141496:01, GDC-0068 (RG7440)]"
9,50.27%,"Cc1cnc(-c2cnc(NCCNc3ccc(C#N)cn3)nc2-c2ccc(Cl)cc2Cl)[nH]1 [UM0141499:01, CHIR-99021 (CT99021)]"
10,7.459%,"Nc1cc(C(F)(F)F)c(-c2cc(N3CCOCC3)nc(N3CCOCC3)n2)cn1 [UM0141503:01, BKM120]"
11,0.8145%,"CN[C@@H](C)C(=O)N[C@H]1CN(C(=O)CC(C)C)CC[C@H]2CC[C@@H](C(=O)NC(c3ccccc3)c3ccccc3)N2C1=O [UM0141504:01, AT-406 (SM-406)]"
12,10.35%,"C[C@@H](Oc1cc(-c2cnn(C3CCNCC3)c2)cnc1N)c1c(Cl)ccc(F)c1Cl [UM0141505:01, (R)-Crizotinib]"
13,18.13%,"Nc1ncnc2c1c(I)cn2[C@@H]1O[C@H](CO)[C@@H](O)[C@H]1O [UM0141507:01, 5-Iodotubercidin]"
14,3.342%,"O=C(NC[C@@H]1CN(c2ccc(N3CCOCC3=O)cc2)C(=O)O1)c1ccc(Cl)s1 [UM0141508:01, 5-R-Rivaroxaban]"
15,2.063%,"Nc1nc(NC2CC2)c2ncn([C@H]3C=C[C@@H](CO)C3)c2n1 [UM0141511:01, Abacavir]"
16,24.76%,"O=C(Nc1cccc(C(F)(F)F)c1)Nc1cc(S(=O)(=O)NC2CC2)ccc1-c1ccsc1 [UM0141513:01, AGI-6780]"
17,8.348%,"N#CC(c1ccnc(OCc2ccc(CN3CCOCC3)cc2)n1)c1nc2ccccc2s1 (stereo not shown) [UM0141518:01, AS 602801]"
18,2.084%,"COc1cc(N2CCC(N3CCN(C)CC3)CC2)ccc1Nc1ncnc(Nc2ccccc2S(=O)(=O)C(C)C)n1 [UM0141520:01, ASP3026]"
19,-7.752%,"C=C[C@@H]1C[C@]1(NC(=O)[C@@H]1C[C@@H](Oc2ncc(OC)c3ccc(Cl)cc23)CN1C(=O)[C@@H](NC(=O)OC(C)(C)C)C(C)(C)C)C(=O)NS(=O)(=O)C1CC1 [UM0141521:01, Asunaprevir (BMS-650032)]"
20,9.96%,"C[C@@H]1COCCN1c1cc(C2(S(C)(=O)=O)CC2)nc(-c2cccc3[nH]ccc23)n1 [UM0141524:01, AZ20]"
21,17.5%,"C=CC(=O)Nc1cccc(Nc2nc(Nc3ccc(N4CCN(C(C)=O)CC4)cc3OC)ncc2C(F)(F)F)c1 [UM0141532:01, CO-1686 (AVL-301)]"
22,6.124%,"O=C(c1ccc(F)c(F)c1Nc1ccc(I)cc1F)N1CC(O)([C@@H]2CCCCN2)C1 [UM0141533:01, Cobimetinib]"
23,4.671%,"C=C1C(=O)O[C@@H]2/C=C(\C)CC/C=C(\C)CC[C@@H]12 [UM0141534:01, Costunolide]"
24,2.566%,"CC(C)(C)NS(=O)(=O)c1cncc(-c2cc(F)c3nc(N)nn3c2)c1 [UM0141537:01, CZC24832]"

# The remaining lines, values behind:
row,Compound,Inh (PKA)
1,"CC(C)(CO)c1cc2cc(NC(=O)C3(c4ccc5c(c4)OC(F)(F)O5)CC3)c(F)cc2n1C[C@@H](O)CO [UM0141480:01, VX-661]",12.93%
2,"Cc1cc(C(C)Nc2ccccc2)c2nc(N3CCOCC3)cc(=O)n2c1 (stereo not shown) [UM0141481:01, TGX-221]",45.75%
3,"CN(C)CCN1C(=O)c2cccc3cc(N)cc(c23)C1=O [UM0141483:01, Amonafide]",12.14%
4,"O=C(Nc1ccc(OC(F)(F)F)cc1)c1sccc1NCc1ccnc2ccccc12 [UM0141486:01, OSI-930]",39.72%
5,"NCC(=O)Nc1ccc(-n2nc(C(F)(F)F)cc2-c2ccc3c(ccc4ccccc43)c2)cc1 [UM0141487:01, OSU-03012 (AR-12)]",5.116%
6,"NC(=O)Cc1cccc(C(=O)c2ccccc2)c1N [UM0141488:01, Nepafenac]",7.116%
7,"COc1cc2c(Oc3ccc(NC(=O)C4(C(=O)Nc5ccc(F)cc5)CC4)cc3F)ccnc2cc1OCCCN1CCOCC1 [UM0141490:01, Foretinib (GSK1363089)]",3.567%
8,"CC1(C)CCC(c2ccc(Cl)cc2)=C(CN2CCN(c3ccc(C(=O)NS(=O)(=O)c4ccc(N[C@H](CCN5CCOCC5)CSc5ccccc5)c(S(=O)(=O)C(F)(F)F)c4)cc3)CC2)C1 [UM0141497:01, ABT-263 (Navitoclax)]",-0.2397%
9,"CCN1CCN(c2ccc(Nc3cc(N(C)C(=O)Nc4c(Cl)c(OC)cc(OC)c4Cl)ncn3)cc2)CC1 [UM0141502:01, BGJ398]",-0.1399%
10,"Cc1n[nH]c2ccc(-c3cncc(OC[C@@H](N)Cc4c[nH]c5ccccc45)c3)cc12 [UM0141510:01, A-443654]",34.74%
11,"N#Cc1ccc(Oc2ccc3c(c2)COB3O)cc1 [UM0141516:01, AN-2728]",2.062%
12,"C=CC(=O)Nc1cccc(Nc2nc(Nc3ccc(OCCOC)cc3)ncc2F)c1 [UM0141522:01, AVL-292]",22.87%
13,"COc1cc([C@@H]2c3cc4c(cc3[C@H](O)[C@H]3COC(=O)[C@@H]23)OCO4)cc(OC)c1OC [UM0141523:01, AXL1717]",8.722%
14,"CCN(CCCOc1ccc2c(Nc3cc(CC(=O)Nc4cccc(F)c4)[nH]n3)ncnc2c1)CCOP(=O)(O)O [UM0141525:01, AZD1152]",8.114%
15,"COC(=O)[C@]12CCC(C)(C)C[C@H]1[C@H]1C(=O)C=C3[C@@]4(C)C=C(C#N)C(=O)C(C)(C)[C@@H]4CC[C@@]3(C)[C@]1(C)CC2 [UM0141526:01, Bardoxolone methyl]",12.18%
16,"CNCc1ccc(C)c(NC(=O)c2ccc(Nc3nc(-c4ccccc4)c4ccccc4n3)cc2)c1 [UM0141527:01, BMS-833923]",45.75%
17,"C=CC(=O)Nc1cc(-n2c(=O)ccc3cnc4ccc(-c5ccc(NS(C)(=O)=O)cc5)cc4c32)ccc1C [UM0141528:01, BMX-IN-1]",6.521%
18,"CC(C)(C)NC(=O)N[C@H](C(=O)N1C[C@H]2[C@@H]([C@H]1C(=O)NC(CC1CCC1)C(=O)C(N)=O)C2(C)C)C(C)(C)C (stereo partly shown) [UM0141529:01, Boceprevir]",1.202%
19,"Cc1c(NC(=O)c2ccc(C(C)(C)C)cc2)cccc1-c1cn(C)c(=O)c(Nc2ccc(C(=O)N3CCOCC3)cc2)n1 [UM0141530:01, CGI-1746]",10.06%
20,"C[C@@H](O)[C@H](NC(=O)c1ccc(C#Cc2ccc(CN3CCOCC3)cc2)cc1)C(=O)NO [UM0141531:01, CHIR-090]",2.568%
21,"COc1cc(/C=C/C(=O)CC(=O)/C=C/c2ccc(O)c(OC)c2)ccc1O [UM0141535:01, Curcumin]",70.09%
22,"CN1CCCN(C(=O)c2cccc(-c3ccc(/C=C4/C(=O)Nc5ccc(Cl)cc54)o3)c2)CC1 [UM0141536:01, CX-6258]",48.23%
23,"S=C(S)O[C@@H]1C[C@@H]2C[C@@H]1[C@H]1CCC[C@@H]21 [UM0141538:01, D609]",17.68%

# — paper PMC9995496, “A screen for MeCP2-TBL1 interaction inhibitors using a luminescence-based assay” (Scientific Reports, 2023)
